{"source": "PubChem BioAssay AID1552", "about": "(Sanford-Burnham Center for Chemical Genomics, 2009)", "note": "Activity calls are given as the source filed them. The rule behind the calls is not given here."}
{"target": "Ubiquitin-conjugating enzyme E2 N (Homo sapiens) (UniProt P61088)", "sequence (P61088 whole entry, looked up)": "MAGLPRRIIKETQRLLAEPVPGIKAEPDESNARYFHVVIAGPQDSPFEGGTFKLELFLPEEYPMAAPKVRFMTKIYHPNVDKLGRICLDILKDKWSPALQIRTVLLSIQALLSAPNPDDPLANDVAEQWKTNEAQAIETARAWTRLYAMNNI", "assay": "UBE2N binders by NMR, biophysical, purified protein (AID 1552)", "conditions": "NMR binding to purified UBE2N"}
{"molecule": "O=c1c(O)c(-c2ccccc2)oc2ccccc12", "Kd": "> 4 mM (inactive)"}
{"molecule": "CC(=O)c1cc2c(cc1O)OC(C)(C)C=C2", "Kd": "> 4 mM (inactive)"}
{"molecule": "CC(=O)Nc1cccc(N2CCCC2=O)c1", "Kd": "> 4 mM (inactive)"}
{"molecule": "Cc1nc(NC2=NCCC(=O)N2)nc2ccccc12", "Kd": "> 4 mM (inactive)"}
{"molecule": "CCc1cccc(C)c1NC(=O)c1cc(C)oc1C", "Kd": "> 4 mM (inactive)"}
{"molecule": "OCc1ccc(CN2CCOCC2)cc1", "Kd": "> 4 mM (inactive)"}
{"molecule": "CSc1ccccc1NC(=O)c1cnccn1", "Kd": "> 4 mM (inactive)"}
{"molecule": "O=C(O)Cn1nnn(-c2ccccc2)c1=S", "Kd": "> 4 mM (inactive)"}
{"molecule": "COc1ccc2ccc(=O)oc2c1CC=C(C)C", "Kd": "> 4 mM (inactive)"}
{"molecule": "c1ccc(CSc2ncccn2)cc1", "Kd": "> 4 mM (inactive)"}
{"molecule": "O=C(O)/C=C/c1ccc(O)c(O)c1", "Kd": "> 4 mM (inactive)"}
{"molecule": "Cc1ccccc1-n1c(-c2ccncc2)n[nH]c1=S", "Kd": "> 4 mM (inactive)"}
{"molecule": "O=C(O)CC1Sc2ccccc2NC1=O", "note": "(configuration not stated)", "Kd": "> 4 mM (inactive)"}
{"molecule": "Cc1nc2ccccc2c(=O)n1-c1cccc(O)c1", "Kd": "> 4 mM (inactive)"}
{"molecule": "CC1/C(=N/O)C[C@@H]2C[C@H]1C2(C)C", "note": "(some centres not stated)", "Kd": "> 4 mM (inactive)"}
{"molecule": "COC(=O)CSc1nnc(-c2ccc(C(=O)O)cc2)o1", "Kd": "> 4 mM (inactive)"}
{"molecule": "CSc1nn(-c2ccccc2)c(N)c1C#N", "Kd": "> 4 mM (inactive)"}
{"molecule": "CC(=O)Nc1cc(O)cc(O)c1", "Kd": "> 4 mM (inactive)"}
{"molecule": "COc1ccc2c(c1)CCCN2C(N)=O", "Kd": "> 4 mM (inactive)"}
{"molecule": "C[C@H](CCC(=O)O)[C@H]1CCC2C3C(CC[C@@]21C)[C@@]1(C)CC[C@@H](O)C[C@H]1C[C@@H]3O", "note": "(some centres not stated)", "Kd": "> 4 mM (inactive)"}
{"molecule": "O=C1COc2ccc(C(=O)c3ccccc3)cc2CN1", "Kd": "> 4 mM (inactive)"}
{"molecule": "Cc1cc2nc(SCC(=O)O)nc(C)c2cc1C", "Kd": "> 4 mM (inactive)"}
{"molecule": "Cc1cc(=O)n(C(N)=S)[nH]1", "Kd": "> 4 mM (inactive)"}
{"molecule": "O=C1NC(=S)S/C1=C/c1ccncc1", "Kd": "> 4 mM (inactive)"}
{"molecule": "Cc1ccc(C)n1CCN1CCNCC1", "Kd": "> 4 mM (inactive)"}
{"molecule": "CC1=CC2C(CC1=O)C(C)=CCC2C(C)C", "note": "(configuration not stated)", "Kd": "> 4 mM (inactive)"}
{"molecule": "S=c1nc(Cc2ccccc2)[nH][nH]1", "Kd": "> 4 mM (inactive)"}
{"molecule": "Cn1nnc2cc(C(=O)NC3CCCCC3)ccc21", "Kd": "> 4 mM (inactive)"}
{"molecule": "O=C(Nc1ccc(Cl)cc1)N1CCCC1", "Kd": "> 4 mM (inactive)"}
{"molecule": "CN1CCN(C(=S)NC(=O)c2ccn(C)n2)CC1", "Kd": "> 4 mM (inactive)"}
{"molecule": "COc1cccc(NC(=O)c2cccs2)c1", "Kd": "> 4 mM (inactive)"}
{"molecule": "Cc1ccc(N2CCN(C(=O)c3ccccc3)CC2)c(C)c1", "Kd": "> 4 mM (inactive)"}
{"molecule": "CC(=O)NC(C)C12CC3CC(CC(C(=O)O)(C3)C1)C2", "note": "(configuration not stated)", "Kd": "> 4 mM (inactive)"}
{"molecule": "CCSc1nc(N)c(NC(=O)c2ccco2)c(=O)[nH]1", "Kd": "> 4 mM (inactive)"}
{"molecule": "Cn1c(=O)cc(O)c2ccccc21", "Kd": "> 4 mM (inactive)"}
{"molecule": "O=C1CC2OCC=C3CN4CC[C@]56c7ccccc7N1C5[C@H]2[C@H]3CC46", "note": "(some centres not stated)", "Kd": "> 4 mM (inactive)"}
{"molecule": "C(=N\\n1cnnc1)/c1cccs1", "Kd": "> 4 mM (inactive)"}
{"molecule": "Cc1cc(C)nc(N2CC(=O)N(C)C2=N)n1", "Kd": "> 4 mM (inactive)"}
{"molecule": "Cn1nnc2cc(CN)ccc21", "Kd": "> 4 mM (inactive)"}
{"molecule": "O=C(O)C1CN(Cc2ccccc2)CCO1", "note": "(configuration not stated)", "Kd": "> 4 mM (inactive)"}
{"molecule": "COc1cccc(N2CCNCC2)c1", "Kd": "> 4 mM (inactive)"}
{"molecule": "CSc1ccc(C(=S)N2CCN(C)CC2)cc1", "Kd": "> 4 mM (inactive)"}
{"molecule": "COc1ccc(-c2cc(=O)c3cc(OC)ccc3o2)cc1", "Kd": "> 4 mM (inactive)"}
{"molecule": "COc1cc(C)nc(N(CCO)CCO)n1", "Kd": "> 4 mM (inactive)"}
{"molecule": "CC(=O)c1c(C)nc(-c2cccs2)n1O", "Kd": "> 4 mM (inactive)"}
{"molecule": "O=C(O)C(O)C(O)C(O)C(O)C(=O)O", "note": "(configuration not stated)", "Kd": "> 4 mM (inactive)"}
{"molecule": "COc1ccc(NC(=O)C(N)=O)cc1Cl", "Kd": "> 4 mM (inactive)"}
{"molecule": "Nc1ccncc1", "Kd": "> 4 mM (inactive)"}
{"molecule": "COc1cc(C(C)=O)cc(OC)c1O", "Kd": "> 4 mM (inactive)"}
{"molecule": "O=C(O)CCCCC1SCC2NC(=O)NC21", "note": "(configuration not stated)", "Kd": "> 4 mM (inactive)"}
{"molecule": "O=C(Nc1cccc(O)c1)c1ccccc1", "Kd": "> 4 mM (inactive)"}
{"molecule": "O=c1oc(-c2ccccc2)nc2c1cnn2-c1ccccc1", "Kd": "> 4 mM (inactive)"}
{"molecule": "Cc1cc(C)n2nc(N)nc2n1", "Kd": "> 4 mM (inactive)"}
{"molecule": "Cc1nnsc1C(=O)O", "Kd": "> 4 mM (inactive)"}
{"molecule": "N=Nc1c(O)[nH]c2ccccc12", "Kd": "> 4 mM (inactive)"}
{"molecule": "COc1cc2c(cc1OC)[C@@H]1C(=O)c3ccc4c(c3O[C@@H]1CO2)C=CC(C)(C)O4", "Kd": "> 4 mM (inactive)"}
{"molecule": "CC12OC(=O)CC3C(C)(C)[C@H](O)C=C[C@]3(C)C1CC[C@]1(C)C2=CC(=O)O[C@H]1c1ccoc1", "note": "(some centres not stated)", "Kd": "> 4 mM (inactive)"}
{"molecule": "O=C(Nc1ccccc1[N+](=O)[O-])c1ccc(=O)[nH]n1", "Kd": "> 4 mM (inactive)"}
{"molecule": "COc1ccc(C(N)=O)cc1N", "Kd": "> 4 mM (inactive)"}
{"molecule": "Nc1nc2ncc(=O)[nH]c2c(=O)[nH]1", "Kd": "> 4 mM (inactive)"}
{"molecule": "CNC(=O)N1CCN(C(=O)NC)CC1", "Kd": "> 4 mM (inactive)"}
{"molecule": "CC1CN=C(Nc2ccccc2)S1", "note": "(configuration not stated)", "Kd": "> 4 mM (inactive)"}
{"molecule": "O=C(NCN1CCOCC1)c1cccnc1", "Kd": "> 4 mM (inactive)"}
{"molecule": "Cc1cc(C)c2nncn2n1", "Kd": "> 4 mM (inactive)"}
{"molecule": "Cc1cc(=O)oc2c1c(C)nn2CN1CCN(C)CC1", "Kd": "> 4 mM (inactive)"}
{"molecule": "O=C1CC(c2c[nH]c3ccccc23)C(=O)N1", "note": "(configuration not stated)", "Kd": "> 4 mM (inactive)"}
{"molecule": "CN(C)S(=O)(=O)c1ccc(NC=O)cc1", "Kd": "> 4 mM (inactive)"}
{"molecule": "Cc1ccc(NC(=O)C(=O)Nc2ccccn2)cc1", "Kd": "> 4 mM (inactive)"}
{"molecule": "O=C(/C(=N\\O)n1cncn1)c1ccccc1Cl", "Kd": "> 4 mM (inactive)"}
{"molecule": "CCOC(=O)c1snnc1-c1ccccc1", "Kd": "> 4 mM (inactive)"}
{"molecule": "CN(C(=O)NC1CCS(=O)(=O)C1)C1CCCCC1", "note": "(configuration not stated)", "Kd": "> 4 mM (inactive)"}
{"molecule": "OCc1ccc2ncccc2c1", "Kd": "> 4 mM (inactive)"}
{"molecule": "Cn1ncc(N2CCOCC2)c(Cl)c1=O", "Kd": "> 4 mM (inactive)"}
{"molecule": "CC1(C)C(=O)C=C[C@@]2(C)C1=C(O)C(=O)[C@]1(C)C2CC[C@@]2(C)[C@H](c3ccoc3)C[C@H]3O[C@]321", "note": "(some centres not stated)", "Kd": "> 4 mM (inactive)"}
{"molecule": "O=C1c2cccnc2C(=O)N1Cc1ccc2c(c1)OCO2", "Kd": "> 4 mM (inactive)"}
{"molecule": "NNc1ncnc2sccc12", "Kd": "> 4 mM (inactive)"}
{"molecule": "CC(C)CCCC(C)[C@H]1CCC2C3CC=C4C[C@@H](O)CC[C@]4(C)C3CC[C@@]21C", "note": "(some centres not stated)", "Kd": "> 4 mM (inactive)"}
{"molecule": "O=C(CSc1nc2ccccc2[nH]1)N1CCCCC1", "Kd": "> 4 mM (inactive)"}
{"molecule": "COc1c(C)c2c(c(O)c1C/C=C(\\C)CCC(=O)O)C(=O)OC2", "Kd": "> 4 mM (inactive)"}
{"molecule": "CCC(C)C(=O)OC1[C@@H]2CC3=C4CC(=O)O[C@@H](c5ccoc5)[C@]4(C)CCC3C(C)(C2=O)[C@@H](CC(=O)OC)C1(C)C", "note": "(some centres not stated)", "Kd": "> 4 mM (inactive)"}
{"molecule": "Oc1ccccc1-c1cc(C(F)(F)F)[nH]n1", "Kd": "> 4 mM (inactive)"}
{"molecule": "CC(=O)Oc1ccc2c(c1OC(C)=O)OCC1(O)Cc3c(cc(OC(C)=O)c(OC(C)=O)c3OC(C)=O)C21", "note": "(configuration not stated)", "Kd": "> 4 mM (inactive)"}
{"molecule": "Cc1cc(NC(=O)c2cccc(N3C(=O)CCC3=O)c2)no1", "Kd": "> 4 mM (inactive)"}
{"molecule": "O=C(Oc1ccc2c(c1)CCC2)N1CCOCC1", "Kd": "> 4 mM (inactive)"}
{"molecule": "CC1(C)CC23C(=O)CCC(O)C2(C)CCC13", "note": "(configuration not stated)", "Kd": "> 4 mM (inactive)"}
{"molecule": "CC(=O)c1c(C)n([O-])c2ccccc2[n+]1=O", "Kd": "> 4 mM (inactive)"}
{"molecule": "CCN1CCc2c(sc(N)c2C(N)=O)C1", "Kd": "> 4 mM (inactive)"}
